Test results taken from US10639380B2, “Flavivirus-binding, entry-obstructing, protease-resistant peptide (RI57)” (priority 2016, dated 2020).
Where two headings read alike, the source gives them in different places. Square brackets hold non-standard residues; d marks the D form. Peptide text beside a SMILES is read from it.

Columns and labels:
DENV2 [1] = assay: LLC-MK2 FFU assay after trypsin exposure of peptide; format: cell-based, dengue virus
Description: Table 7. […] The peptides were exposed to trypsin for ten minutes at 37° C. before STI was added and further incubated ten minutes. The resulting peptide, in each case, was incubated with DENV2 for 1 hour at 20° C. and then this preparation used to infect confluent LLC-MK2 monolayers.

in vitro = details: rhesus monkey, LLC-MK2 cells (confluent monolayers)
Description: Possible direct cytotoxicity caused by peptide exposure to proliferating LLC-MK2 monolayers was measured using the TACS™ MTT cell proliferation assay (R&D Systems, Inc., Minneapolis, Minn.) according to the manufacturer's instructions. The MTT assay detects and measures mitochondrial reductase activity observable in viable cells. […] A Tecan GeniosPro plate reader (Tecan US, Durham, N.C.) was used to measure absorbance at 560 nm.
Error bars show ±standard deviations (±sd) of the means with an asterisk indicating instances of statistically-significant differences from control according to Dunnett's post hoc test (p<0.05).

[2] = 1:2 dilution of NHS, 37° C., 24 h
Description: Lane 1 contains peptide alone/time=0; lane 2, peptide at 37° C./time=24 h; lane 3, peptide in a 1:2 dilution of NHS/time=0; lane 4, peptide in a 1:2 dilution of NHS @ 37° C./time=24 h; and lane 5, a 1:2 dilution of NHS with no peptide at 37° C./time=24 h.

DENV2 [3] = assay: Post-binding FFU assay; format: cell-based, dengue virus; details: DN57 added after virus bound at 4° C.; data not shown, see Costin, et al., 2010
Description: Experiments were conducted further to characterize observed inhibitory effects as to whether these may have been due to interference with interactions occurring pre-binding, versus post-binding, of virions and LLC-MK2 target cells. An estimated 200 FFU of DENV2 were allowed to interact with target cells for 1 h at 4° C., permitting binding while preventing internalization. Unbound virus was washed off with PBS at 4° C., DN57 added, and the cultures incubated at 4° C. for 1 h, again washed in 4° C. PBS, and then warmed to 37° C. Finally, agarose overlays, incubation, and immunological detection assays were performed as described for the focus-forming assay.
Inasmuch as it was determined that inhibition by DN57 occurs at a viral-entry step, whether infection could still be inhibited after virus had bound to the surface of target cells was tested. In these experiments, virus was allowed to bind to cells at 4° C., then treated with increasing concentrations of DN57 before warming the cells to 37° C. providing conditions in favor of viral progression.

trypsin = details: peptide incubated in trypsin at 37° C. before adding STI
Description: The image documents 10-20% gradient gels run electrophoretically (e-gel), labeled with Imperial Protein Stain, and photographed. An e-gel was performed for each peptide, stained with Imperial stain, and photographed. The arrow markers show both the identity of the peptide run and its final location after migration. For each peptide assessment, lanes 1 contain peptide alone; lanes 2, peptide plus soybean trypsin inhibitor (STI); and lanes 3, peptide incubated in trypsin at 37° C. before adding STI.

DENV2 [4] = assay: qRT-PCR virus-binding assay; format: cell-based, dengue virus
Description: Further to characterize DENV binding to host cells, experiments were conducted to analyze the first step in the process of infection. Infection of LLC-MK2 target cells in six-well plates was executed in duplicate using 10^5 FFU of DENV2 pre-incubated 45 min at 4° C. with either DN57, or RI57 peptide, or pooled heterotypic anti-DENV human serum. Following said 45 min exposure at 4° C., infected monolayers were washed with PBS and harvested by cell scraping, added to a 1.5 ml microfuge tube containing 350 μl AR-200 silicone oil (Sigma-Aldrich, St. Louis, Mo.), mixed with 150 μl silicone fluid (Thomas, Swedesboro, N.J.), and microfuge spun 1 min at 14,000 rpm to separate unbound virus from cell-bound virus. The tubes were then submerged in liquid nitrogen for 30 sec to freeze the contents. The cell pellets with (or without) bound virus were recovered by removing the bottoms of the tubes with small wire clippers and placing them in 15 ml conical tubes. By means of the Qiagen Viral RNA Extraction Kit (Qiagen, Chatsworth, Calif.), viral RNA was extracted from cell pellets.
Using the Quantitect SYBR Green RT-PCR kit (Qiagen Inc., Chatsworth, Calif.), qRT-PCR was performed on the extracted RNA. Manufacturer's specifications and amplification protocols were followed utilizing dengue-specific primers: (DenF: 5-[…]-3 and DenR: 5-[…]-3). […] The following amplification protocol was used: 50° C. for 20 min to reverse transcribe the RNA; 95° C. for 15 min to activate the HotStart Taq DNA Polymerase; 45 PCR cycles: 94° C. for 15 sec; 50° C. for 15 sec; 72° C. for 30 sec; and fluorescence data acquisition was the final step. […]
To test whether DN57 and RI57 interfere directly with virus binding to target cells, binding assays were conducted using qRT-PCR to monitor attachment of virus to target cells. […] RNA was then extracted from the cell pellets and amplified with DENV2-specific primers to quantitate the presence of virus. […]

DENV2 [5] = assay: Post-entry FFU assay; format: cell-based, dengue virus; details: any DN57 concentration; data not shown, see Costin, et al., 2010
Description: Experiments were conducted further to characterize observed inhibitory effects to determine whether they actually may have been due to interference with post-entry steps in the viral life cycle. To this end, approximately 200 FFU of DENV2 (without DN57) were allowed the opportunity to bind and then enter target LLC-MK2 cells for 1 h at 37° C. as described for the focus-forming assay. Any unbound virus was then removed by rinsing with PBS. Next, DN57 was added to the cells post-entry for 1 h at 37° C. Cultures again were washed with PBS and agarose overlays, incubation, and immunological detection assessments were performed as described for the focus-forming assay.

DENV2 [6] = assay: Pre-binding FFU assay (reversibility of peptide binding); format: cell-based, dengue virus
Description: Experiments were conducted further to characterize observed inhibitory effects and determine whether these may have been due to unintended interference owing to modifications of target LLC-MK2 cell surfaces. RI57 was incubated with target cells for 1 h at 4° C., the monolayer cells were then rinsed with PBS, and approximately 200 FFU of DENV2 allowed to infect the cells at 4° C. Agarose overlays, incubation, and immunological detection tests were conducted as described above for the focus-forming assay.
In this assay, DN57 or RI57 was added to target cells for 1 h prior to infection with DENV2 to determine whether these peptides inhibit entry through interaction directly with target cells. […] Table 5. (and also FIG. 7) presents results showing that peptide binding can be reversible. (and FIG. 5.). Introducing a step diluting the concentration of peptide 10-fold after incubating/1 h at 20° C. and then infecting immediately thereafter reverses this inhibition. Errors around the means are depicted as ±sd.

DENV2 [7] = tested on: DENV2
Description: (§1) Twenty-four hours prior to infection, LLC-MK2 target cells were seeded at a density of 1.0×10^5 cells per well of an E-well plate. Approximately 200 FFU of virus were incubated with or without peptides in serum-free DMEM for 1 h at 20° C. Virus/peptide or virus/control mixtures were allowed to infect confluent target cell monolayers for 1 h at 37° C., rocking every 15 min, after which time the medium was aspirated and monolayers overlaid with fresh DMEM plus v/v 10% FBS containing v/v 0.85% Sea-Plaque Agarose (Cambrex Bio Science, Rockland, Me.). To allow proper setting, monolayers with agar overlays were incubated 20 min at 4° C. Next, infected cells were incubated at 37° C. with 5% CO2 for three days (DENV1, -3, and -4) or five days (DENV2). Then, infected cultures were fixed with 10% formalin overnight at 4° C., permeabilized with v/v 70% ethanol for 20 min, and rinsed with phosphate-buffered saline, pH 7.4 (PBS) prior to immunostaining. Viral foci were detected and enumerated using supernatant from mouse anti-DENV hybridoma E60 (obtained from the Department of Pathology & Immunology, Washington University, St. Louis, Mo.) followed by horseradish peroxidase-conjugated goat anti-mouse immunoglobulin (Pierce, Rockford, Ill.) and developed using AEC chromogen substrate (Dako, Carpinteria, Calif.). Results have been expressed as an average of two independent trials (at least) with three replicates each.

DENV2 [8] = details: as previously observed; cited from earlier work

Description for DENV1: as §1
Description for DENV3: as §1
Description for DENV4: as §1

Question: With `CSCC[C@H](NC(=O)[C@H](Cc1c[nH]c2ccccc12)NC(=O)[C@@H](N)CCCNC(=N)N)C(=O)N[C@H](C(=O)N[C@@H](Cc1c[nH]c2ccccc12)C(=O)N[C@@H](CCCNC(=N)N)C(=O)N[C@@H](Cc1c[nH]cn1)C(=O)N[C@@H](Cc1c[nH]c2ccccc12)C(=O)N[C@@H](Cc1ccccc1)C(=O)N[C@@H](Cc1c[nH]cn1)C(=O)N[C@@H](CCCNC(=N)N)C(=O)N[C@@H](CC(C)C)C(=O)N[C@@H](CCCNC(=N)N)C(=O)N[C@@H](CC(C)C)C(=O)N1CCC[C@H]1C(=O)N[C@@H](Cc1ccc(O)cc1)C(=O)N[C@@H](CC(N)=O)C(=O)N1CCC[C@H]1C(=O)NCC(=O)N[C@@H](CCCCN)C(=O)N[C@@H](CC(N)=O)C(=O)N[C@@H](CCCCN)C(=O)N[C@@H](CCC(N)=O)C(=O)N[C@@H](CC(N)=O)C(=O)N[C@@H](CCC(N)=O)C(=O)N[C@@H](CCC(N)=O)C(=O)N[C@@H](Cc1c[nH]c2ccccc12)C(=O)N1CCC[C@H]1C(=O)O)C(C)C` [DN57, reference compound] (H-RWMVWRHWFHRLRLPYNPGKNKQNQQWP-OH; N-terminus and C-terminus assumed) as the molecule, how does the “% Infection Inhibition” value (DENV2 [1]; DENV2 + 20 uM peptide) read?
Answer: 96.4%

Question: What about the “% Infection Inhibition” value (DENV2 [1]; DENV2 + 20 uM peptide + Trypsin + STI (trypsin ten minutes at 37° C.)) of the same molecule?
Answer: 5.2%

Question: What about the “DENV2 inhibitory activity after trypsin exposure” value (DENV2 [1]; trypsin ten minutes at 37° C. before STI) of the same molecule?
Answer: did not

Question: And the viability at 24 h, 0.1 µM (in vitro)?
Answer: 100%

Question: What about the viability at 24 h, 0.5 µM (in vitro) of the same molecule?
Answer: 98.6%

Question: And the viability at 24 h, 1 µM (in vitro)?
Answer: 100%

Question: And the viability at 24 h, 5 µM (in vitro)?
Answer: 97.8%

Question: What about the viability at 24 h, 10 µM (in vitro) of the same molecule?
Answer: 95.9%

Question: And the viability at 24 h, 15 µM (in vitro)?
Answer: 92.8%

Question: What about the viability at 24 h, 20 µM (in vitro) of the same molecule?
Answer: 76.4%

Question: What about the viability at 24 h, 25 µM (in vitro) of the same molecule?
Answer: 80.2%

Question: What about the viability at 24 h, 30 µM (in vitro) of the same molecule?
Answer: 54.7%

Question: What about the viability at 24 h, 35 µM (in vitro) of the same molecule?
Answer: 55.1%

Question: And the viability at 24 h, 40 µM (in vitro)?
Answer: 50.6%

Question: What about the “degradation in normal human serum (e-gel)” value [2] of the same molecule?
Answer: absent

Question: And the “DENV-2 infection after virus binding to cells, before entry” value (DENV2 [3])?
Answer: inhibits DENV-2 infection

Question: What about the “trypsin cleavage (e-gel)” value (trypsin) of the same molecule?
Answer: degraded

Question: What about the “% Infection Inhibition” value (DENV2 [4]; DENV2 + 20 uM peptide) of the same molecule?
Answer: 96.4%

Question: And the “% Infection Inhibition” value (DENV2 [4]; DENV2 + 20 uM peptide + Trypsin + STI)?
Answer: 5.2%

Question: And the “binding of virus to cells” value (DENV2 [4]; virus co-incubated with peptide 45 min at 4° C.)?
Answer: inhibit binding of virus to cells

Question: What about the “viral replication when peptide added post-entry” value (DENV2 [5]) of the same molecule?
Answer: no inhibition of viral replication was observed

Question: And the “% DENV2 Infection Inhibition” value (DENV2 [6]; PBS Rinse (text: peptide diluted 10-fold after incubation, then infecting))?
Answer: −2.8%

Question: What about the “% DENV2 Infection Inhibition” value (DENV2 [6]; incubation with 10 μM/1 h at 20° C., no rinse) of the same molecule?
Answer: 83.1%

Question: What about the “inhibition on treatment of target cells with peptide prior to DENV2 infection” value (DENV2 [6]; peptide added to target cells for 1 h prior to infection) of the same molecule?
Answer: no evidence of inhibition

Question: What does the source list for `CSCC[C@@H](NC(=O)[C@H](NC(=O)[C@@H](Cc1c[nH]c2ccccc12)NC(=O)[C@@H](CCCNC(=N)N)NC(=O)[C@@H](Cc1c[nH]cn1)NC(=O)[C@@H](Cc1c[nH]c2ccccc12)NC(=O)[C@@H](Cc1ccccc1)NC(=O)[C@@H](Cc1c[nH]cn1)NC(=O)[C@@H](CCCNC(=N)N)NC(=O)[C@@H](CC(C)C)NC(=O)[C@@H](CCCNC(=N)N)NC(=O)[C@@H](CC(C)C)NC(=O)[C@H]1CCCN1C(=O)[C@@H](Cc1ccc(O)cc1)NC(=O)[C@@H](CC(N)=O)NC(=O)[C@H]1CCCN1C(=O)CNC(=O)[C@@H](CCCCN)NC(=O)[C@@H](CC(N)=O)NC(=O)[C@@H](CCCCN)NC(=O)[C@@H](CCC(N)=O)NC(=O)[C@@H](CC(N)=O)NC(=O)[C@@H](CCC(N)=O)NC(=O)[C@@H](CCC(N)=O)NC(=O)[C@@H](Cc1c[nH]c2ccccc12)NC(=O)[C@H]1CCCN1)C(C)C)C(=O)N[C@H](Cc1c[nH]c2ccccc12)C(=O)N[C@H](CCCNC(=N)N)C(=O)O` [RI57] (H-[dP][dW][dQ][dQ][dN][dQ][dK][dN][dK]G[dP][dN][dY][dP][dL][dR][dL][dR][dH][dF][dW][dH][dR][dW][dV][dM][dW][dR]-OH; N-terminus and C-terminus assumed)?
Answer: % Inhibition DENV1 (DENV1; 0.1 uM peptide): 2.4%; % Inhibition DENV1 (DENV1; 0.5 uM peptide): 16.2%; % Inhibition DENV1 (DENV1; 1.0 uM peptide): −43.6%; % Inhibition DENV1 (DENV1; 5.0 uM peptide): 63.8%; % Inhibition DENV1 (DENV1; 10.0 uM peptide): 97.3%; % Inhibition DENV1 (DENV1; 20.0 uM peptide): 100.0%; IC50 (DENV1; DENV1, sigmoidal curve-fitting to dose-response curve): 4.6 µM; viability at 24 h, 0.1 µM (in vitro): 95.9%; viability at 24 h, 0.5 µM (in vitro): 96.5%; viability at 24 h, 1 µM (in vitro): 95%; viability at 24 h, 5 µM (in vitro): 95.9%; viability at 24 h, 10 µM (in vitro): 95.3%; viability at 24 h, 15 µM (in vitro): 100%; viability at 24 h, 20 µM (in vitro): 101%; viability at 24 h, 25 µM (in vitro): 101%; viability at 24 h, 30 µM (in vitro): 104%; viability at 24 h, 35 µM (in vitro): 94.3%; viability at 24 h, 40 µM (in vitro): 92%; degradation in normal human serum (e-gel) [2]: remains completely intact; % Inhibition DENV2 (DENV2 [7]; 0.1 uM peptide): 6.2%; % Inhibition DENV2 (DENV2 [7]; 0.5 uM peptide): −1.7%; % Inhibition DENV2 (DENV2 [7]; 1.0 uM peptide): −5.9%; % Inhibition DENV2 (DENV2 [7]; 5.0 uM peptide): 4.3%; % Inhibition DENV2 (DENV2 [7]; 10.0 uM peptide): 69.8%; % Inhibition DENV2 (DENV2 [7]; 20.0 uM peptide): 97.8%; IC50 (DENV2 [7]; DENV2, sigmoidal curve-fitting to dose-response curve): 7.4 µM; % Inhibition DENV3 (DENV3; 0.1 uM peptide): 15.1%; % Inhibition DENV3 (DENV3; 0.5 uM peptide): 3.3%; % Inhibition DENV3 (DENV3; 1.0 uM peptide): −73.1%; % Inhibition DENV3 (DENV3; 5.0 uM peptide): −9.7%; % Inhibition DENV3 (DENV3; 10.0 uM peptide): 63.3%; % Inhibition DENV3 (DENV3; 20.0 uM peptide): 90.1%; IC50 (DENV3; DENV3, sigmoidal curve-fitting to dose-response curve): 5.9 µM; trypsin cleavage (e-gel) (trypsin): resistant to trypsin cleavage; % Inhibition DENV4 (DENV4; 0.1 uM peptide): 18.9%; % Inhibition DENV4 (DENV4; 0.5 uM peptide): −0.7%; % Inhibition DENV4 (DENV4; 1.0 uM peptide): −11.8%; % Inhibition DENV4 (DENV4; 5.0 uM peptide): −41.8%; % Inhibition DENV4 (DENV4; 10.0 uM peptide): 55.5%; % Inhibition DENV4 (DENV4; 20.0 uM peptide): 94.4%

Question: With heparin sulfate as the molecule, how does the “binding of dengue virus to cells (control)” value (DENV2 [8]) read?
Answer: dramatically reduces binding of dengue virus to cells
